Data taken from ChEMBL document CHEMBL3997812, “The induction of oxidative stress in cervix carcinoma cells by levoglucosenone derived 4-S-salicyl derivative and (1-4)-S-thio-disaccharides. Part 4” (2017).
Activity calls are given as the source filed them. The rule behind the calls is not given here.

What was measured:
HeLa [1] = assay: Geno-toxicity in human HeLa cells assessed as induction of DNA damage after 1 hr by alkaline comet assay; format: functional, cell-based
HeLa [2] = assay: Geno-toxicity in human HeLa cells assessed as induction of DNA damage by measuring increase in double stranded DNA breaks at 5.6 to 69 uM after 1 hr by neutral comet assay; format: functional, cell-based
HeLa [3] = assay: Geno-toxicity in human HeLa cells assessed as induction of DNA damage by measuring increase in incomplete excision repair sites at pH 12.1 after 1 hr by comet assay; format: functional, cell-based
Escherichia coli [4] = assay: Induction of Escherichia coli pUC19 DNA damage assessed as increase in linear DNA forms after 1 hr by agarose gel electrophoresis
Escherichia coli [5] = assay: Induction of Escherichia coli pUC19 DNA damage assessed as increase in open circular DNA forms after 1 hr by agarose gel electrophoresis
Escherichia coli [6] = assay: Induction of Escherichia coli pUC19 DNA damage assessed as decrease in supercoiled covalently closed circular DNA forms after 1 hr by agarose gel electrophoresis
HeLa [7] = assay: Induction of DNA damage in human HeLa cells incubated for 1 hr followed by repair incubation for 120 mins by alkaline comet assay; format: functional, cell-based
HeLa [8] = assay: Induction of DNA damage in human HeLa cells assessed as increase in DNA lessions at 37 degreeC incubation for 120 mins by alkaline comet assay relative to control; format: functional, cell-based
HeLa [9] = assay: Induction of DNA damage in human HeLa cells assessed as increase in DNA lessions at 4 degreeC incubation for 120 mins by alkaline comet assay relative to control; format: functional, cell-based
HeLa [10] = assay: Induction of ROS production in human HeLa cells after 1 hr by CM-H2DCFDA probe based fluorescence assay; format: functional, cell-based
HeLa [11] = assay: Induction of nitric oxide production in human HeLa cells after 1 hr by DAF2-DA probe based fluorescence assay; format: functional, cell-based
HeLa [12] = assay: Effect on SOD1 mRNA expression in human HeLa cells after 4 hrs by RT-PCR method relative to control; format: functional
HeLa [13] = assay: Effect on SOD2 mRNA expression in human HeLa cells after 4 hrs by RT-PCR method relative to control; format: functional
HeLa [14] = assay: Effect on HMOX mRNA expression in human HeLa cells after 4 hrs by RT-PCR method relative to control; format: functional
HeLa [15] = assay: Effect on GCLM mRNA expression in human HeLa cells after 4 hrs by RT-PCR method relative to control; format: functional
HeLa [16] = assay: Effect on TXN mRNA expression in human HeLa cells after 4 hrs by RT-PCR method relative to control; format: functional
HeLa [17] = assay: Effect on NCOA7 mRNA expression in human HeLa cells after 4 hrs by RT-PCR method relative to control; format: functional
HeLa [18] = assay: Effect on NQO1 mRNA expression in human HeLa cells after 4 hrs by RT-PCR method relative to control; format: functional
HeLa [19] = assay: Effect on NOX4 mRNA expression in human HeLa cells after 4 hrs by RT-PCR method relative to control; format: functional
HeLa [20] = assay: Effect on NOX5 mRNA expression in human HeLa cells after 4 hrs by RT-PCR method relative to control; format: functional
HeLa [21] = assay: Effect on GPX4 mRNA expression in human HeLa cells after 4 hrs by RT-PCR method relative to control; format: functional
HeLa [22] = assay: Upregulation of GPX1 mRNA expression in human HeLa cells after 4 hrs by RT-PCR method; format: functional, cell-based
HeLa [23] = assay: Upregulation of CAT mRNA expression in human HeLa cells after 4 hrs by RT-PCR method; format: functional, cell-based
HeLa [24] = assay: Induction of oxidative stress in human HeLa cells assessed as reduction in GSH level after 1 hr by MBCL probe based flow cytometry relative to control; format: functional; design: scale not given: the % may be the effect or the level left
HeLa [25] = assay: Induction of oxidative stress in human HeLa cells assessed as reduction in thioredoxin reductase at IC50 after 14 hrs by DTNB/bradford reagent based colorimetric method; format: functional; design: scale not given: the % may be the effect or the level left
HeLa [26] = assay: Geno-toxicity in human HeLa cells assessed as induction of DNA damage by measuring increase in single strand breaks after 1 hr by comet assay; format: functional, cell-based
HeLa [27] = assay: Induction of DNA damage in human HeLa cells after 1 hr in presence of antioxidant vitamin E by alkaline comet assay relative to control; format: functional, cell-based
HeLa [28] = assay: Induction of DNA damage in human HeLa cells after 1 hr in presence of antioxidant epicatechin by alkaline comet assay relative to control; format: functional, cell-based
HeLa [29] = assay: Geno-toxicity in human HeLa cells assessed as induction of DNA damage by measuring increase in double stranded DNA breaks at 69 to 550 uM after 1 hr by neutral comet assay; format: functional, cell-based
HeLa [30] = assay: Geno-toxicity in human HeLa cells assessed as induction of DNA damage by measuring increase in double stranded DNA breaks at 17 to 137 uM after 1 hr by neutral comet assay; format: functional, cell-based

Compound	Activity (HeLa [1])	Activity (HeLa [3])	Activity (Escherichia coli [4])	Activity (Escherichia coli [5])	Activity (Escherichia coli [6])	Activity (HeLa [7])	Activity (HeLa [8])	Activity (HeLa [9])	Activity (HeLa [10])	Activity (HeLa [11])	fold change (FC) (HeLa [12])	fold change (FC) (HeLa [13])	fold change (FC) (HeLa [14])	fold change (FC) (HeLa [15])	fold change (FC) (HeLa [16])	fold change (FC) (HeLa [17])	fold change (FC) (HeLa [18])	fold change (FC) (HeLa [19])	fold change (FC) (HeLa [20])	fold change (FC) (HeLa [21])	further results
CC(=O)OC[C@H]1O[C@@H](S[C@@H]2CC(=O)[C@@H]3OC[C@H]2O3)[C@H](OC(C)=O)[C@@H](OC(C)=O)[C@@H]1OC(C)=O	Dose-dependent effect	Dose-dependent effect	inactive	inactive	inactive	inactive	Active	inactive	Active	inactive	1.18	1.56	20.29	2.21	0.76	0.43	1.34	0.58	0.53	1.15	Activity (HeLa [2]): inactive; Activity (HeLa [22]): Active; Activity (HeLa [23]): Active; Activity (HeLa [24]): 20%; Activity (HeLa [25]): 18.3%; Activity (HeLa [26]): Dose-dependent effect; Activity (HeLa [27]): inactive; Activity (HeLa [28]): inactive
CC(=O)OC[C@H]1O[C@@H](S[C@@H]2CC(=O)[C@@H]3OC[C@H]2O3)[C@H](OC(C)=O)[C@@H](OC(C)=O)[C@H]1OC(C)=O	Dose-dependent effect	Dose-dependent effect	inactive	inactive	inactive	inactive	Active	inactive	Active	inactive	1.07	1.26	10.53	1.77	1.07	0.37	1.36	0.74	0.68	0.75	Activity (HeLa [29]): inactive; Activity (HeLa [22]): Active; Activity (HeLa [23]): Active; Activity (HeLa [24]): 60%; Activity (HeLa [25]): 9.2%; Activity (HeLa [26]): Dose-dependent effect; Activity (HeLa [27]): inactive; Activity (HeLa [28]): inactive
O=C(O)c1ccccc1S[C@@H]1CC(=O)[C@@H]2OC[C@H]1O2	Dose-dependent effect	Dose-dependent effect	inactive	inactive	inactive	inactive	Active	inactive	Active	inactive	1.12	1.28	3.42	1.56	0.93	0.51	1.61	1.13	0.56	0.56	Activity (HeLa [30]): inactive; Activity (HeLa [22]): Active; Activity (HeLa [23]): Active; Activity (HeLa [24]): Active; Activity (HeLa [25]): 7.5%; Activity (HeLa [26]): Dose-dependent effect; Activity (HeLa [27]): inactive; Activity (HeLa [28]): inactive
O=C1C[C@@H](S[C@@H]2O[C@H](CO)[C@@H](O)[C@H](O)[C@H]2O)[C@H]2CO[C@@H]1O2	Dose-dependent effect	Dose-dependent effect	inactive	inactive	inactive	inactive	Active	inactive	Active	inactive	1.16	1.25	7.29	1.95	0.94	0.35	1.27	0.68	0.34	0.56	Activity (HeLa [29]): inactive; Activity (HeLa [22]): Active; Activity (HeLa [23]): Active; Activity (HeLa [24]): Active; Activity (HeLa [25]): 3.86%; Activity (HeLa [26]): Dose-dependent effect; Activity (HeLa [27]): inactive; Activity (HeLa [28]): inactive
